From PMC3253737 (Journal of Natural Products, 2011)
Where two headings read alike, the source gives them in different places.

Legend:
[1] = MTS viability; format: cell-based; conditions: human (JMAR, MDA-1986, SKMEL-28, MRC-5) and mouse (B16F10)
[2] = test system: HNSCC (JMAR and MDA-1986), melanoma (B16F10 and SKMEL-28), and normal fetal fibroblast (MRC-5) cells; test: MTS viability; format: cell-based
[3] = Cytotoxicity IC50 (inactive for all cell lines used), all cell lines used (B16F10, SKMEL-28, JMAR, MDA-1986, MRC-5)

Compound | IC50 ([1]; cytotoxicity IC50) | IC50 [1, 3] | other results
CC1=C(CO)C(=O)O[C@@H]([C@@H](C)[C@H]2CC[C@H]3[C@@H]4C[C@H]5O[C@]56[C@@H](O)C=CC(=O)[C@]6(CO)[C@H]4CC[C@]23C)C1 [Compound 1, 19-hydroxywithaferin A] |  |  | IC50 [1]: 0.067 to 9.3 µM
CC1=C(C)C(=O)O[C@@H]([C@@H](C)[C@H]2CC[C@H]3[C@@H]4C[C@H]5O[C@]56[C@@H](O)C=CC(=O)[C@]6(CO)[C@H]4CC[C@]23C)C1 [Compound 2, 27-deoxy-19-hydroxywithaferin A] | 0.067 to 9.3 µM |  | 
CC1=C(CO)C(=O)O[C@@H]([C@@H](C)[C@H]2CC[C@H]3[C@@H]4CC=C5C=CC(=O)[C@]5(C)[C@H]4CC[C@]23C)C1 [Compound 6, A-nor-27-hydroxy-1-oxowitha-2,5,24-trienolide] |  |  | IC50 [1]: > 10 µM
CC1=C(CO)C(=O)O[C@@H]([C@@H](C)[C@H]2CC[C@H]3[C@@H]4C[C@H]5O[C@]56[C@@H](O)[C@@H](OS(=O)(=O)O)CC(=O)[C@]6(CO)[C@H]4CC[C@]23C)C1 [Compound 7, 2,3-dihydro-19-hydroxy-3β-O-sulfate-withaferin A] | 0.067 to 9.3 µM |  | 
CC1=C(CO[C@@H]2O[C@H](CO)[C@@H](O[C@@H]3O[C@@H](C)[C@H](O)[C@@H](O)[C@H]3O)[C@H](O)[C@H]2O)C(=O)O[C@@H]([C@@H](C)[C@H]2CC[C@H]3[C@@H]4C[C@H]5O[C@]56[C@@H](O)C=CC(=O)[C@]6(C)[C@H]4CC[C@]23C)C1 [Compound 8, 27-O-[α-L-rhamnopyranosyl(1→4)]-β-D-glucopyranosyl-withaferin A] | 0.067 to 9.3 µM |  | cytotoxicity relative to the aglycone withaferin A (16) [2]: less cytotoxicity
CC1=C(CO[C@@H]2O[C@H](CO)[C@@H](O)[C@H](O)[C@H]2O)C(=O)O[C@@H]([C@@H](C)[C@H]2CC[C@H]3[C@@H]4C[C@H]5O[C@]56[C@@H](O)C=CC(=O)[C@]6(C)[C@H]4CC[C@]23C)C1 [Compound 15, 27-O-β-D-glucopyranosyl-withaferin A] |  |  | cytotoxicity relative to the aglycone withaferin A (16) ([2]; MTS assay, comparison in words): less cytotoxicity
CO[C@H]1CC(=O)[C@]2(C)[C@H]3CC[C@]4(C)[C@@H]([C@H](C)[C@H]5CC(C)=C(CO)C(=O)O5)CC[C@H]4[C@@H]3C[C@H]3O[C@]32[C@H]1O [Compound 17, 2,3-dihydro-3β-methoxywithaferin A] |  |  | IC50 ([1]; Cytotoxicity IC50 (inactive for all cell lines used)): > 10 µM
CC1=C(CO)C(=O)O[C@@H]([C@@H](C)[C@H]2CC[C@H]3[C@@H]4C[C@H]5O[C@]56[C@@H](O)[C@@H](O)CC(=O)[C@]6(C)[C@H]4CC[C@]23C)C1 [Compound 18, viscosalactone B] |  | > 10 µM | 
CC1=C(CO)C(=O)O[C@@H]([C@@H](C)[C@H]2CC[C@H]3[C@@H]4C[C@H]5O[C@]56[C@@H](O)CCC(=O)[C@]6(C)[C@H]4CC[C@]23C)C1 [Compound 20, 2,3-dihydrowithaferin A] |  | > 10 µM | 
CC1=C(CO)C(=O)O[C@@H]([C@@H](C)[C@H]2CC[C@H]3[C@@H]4C[C@@H]5O[C@@H]6CC(=O)[C@](C)([C@H]4CC[C@]23C)[C@@]5(O)[C@H]6O)C1 [Compound 21, 3α,6α-epoxy-4β,5β,27-trihydroxy-1-oxowitha-24-enolide] |  | > 10 µM | 
